Test: Human HepG2 cell viability assay in 384 well format
Type: toxicity, cell-based
Parameters: dose 125 nL, time 70.5 hour; cytotoxicity at 70.5 h: concentration not given beside the values
Details: HepG2 cells, read-out: Inhibition

Row | SMILES | cytotoxicity at 70.5 h [%]
1 | CCn1c(N)nc2cc(C(=O)NCc3cccc(C)c3C)cnc21 | 17.1
2 | CC(=O)c1cc(CC(=O)N2CCN(CCOc3ccccc3)CC2)cs1 | -1.31
3 | CCCN1CCCC2(CCN(S(=O)(=O)N3CCC(OC)CC3)C2)C1=O (stereo unspecified) | -1.84
4 | CN(Cc1ccco1)c1ccc(C(=O)NCCCc2ccccn2)cn1 | 0.076
5 | Fc1ccccc1CN1CCCN(c2ncnc3[nH]ccc23)CC1 | -24
6 | CCCn1ccnc1CN1C[C@@H](CN2CCCN(C)CC2)[C@@H](CO)C1 | -9.5
7 | CC(C)N1CCC2(CC1)CC(=O)N(Cc1cc(F)cc(F)c1)C2 | -2.98
8 | CC(C)c1cc(NCC(O)c2ccccn2)n2nccc2n1 (stereo unspecified) | -8.96
9 | Cc1sc2ncnc(N3CCC(N(C)Cc4cnn(C)c4)CC3)c2c1C | 0.374
10 | Cc1nsc(NC(=O)NC2(CN3CCOCC3)CCCC2)n1 | -8.03
11 | CCc1ccc(CN(CCN(C)C)Cc2ccc(C)s2)nc1 | -5.3
12 | O=C1CC(NCc2ncc[nH]2)CN1CCc1cccc(Cl)c1 (stereo unspecified) | -8.16
13 | CCCn1ncc(C(=O)NC2CCN(C3CCOCC3)CC2)c1C | -2.11
14 | O=C(c1cc2c(s1)CCCCC2)N1CCC(c2ncc[nH]2)CC1 | 1.98
15 | Cc1nc[nH]c1CN(C)Cc1cnn(-c2ccc(F)cc2)c1 | 28.9
16 | O=C(O)[C@@H]1CN(C(=O)CCN2CCCCC2)C[C@H]1c1ccccc1 | -5.31
17 | Cc1ncc(CC(=O)N2CCCC(COc3ccc(F)cc3)C2)c(=O)[nH]1 (stereo unspecified) | 2.89
18 | CC(C)[C@H](NC(=O)c1cccc(CCC(C)(C)O)c1)C(N)=O | -2.04
19 | CCS(=O)(=O)N1CCC(c2nnc(CN3CCCCCC3)n2C)CC1 | -3.73
20 | c1cc(-c2ccc(CN3CCCC4(CCNC4)C3)s2)[nH]n1 (stereo unspecified) | 1.71
21 | CCc1nn(C)c(Cl)c1CN1CCC2(C1)CN(C)C(=O)O2 (stereo unspecified) | -17.2
22 | Cc1ccc(N2CCN(C(=O)C(O)c3cccc(Cl)c3)CC2=O)cc1 (stereo unspecified) | -5.15
23 | O=C1NCC(CN2CCc3onc(-c4ccc(C(F)(F)F)cc4)c3C2)O1 (stereo unspecified) | -17.3

Row | SMILES | cytotoxicity at 70.5 h [%]
24 | Cc1ccc(CCNc2nccc(-c3cc(C(=O)O)ccn3)n2)o1 | -6.22
25 | CC(C)(C(=O)NCC1CCN(Cc2cccnc2)C1)c1ccccc1 (stereo unspecified) | -4.33
26 | O=C(NC1CCNCC1)C1(N2CCCCC2)Cc2ccccc2C1 | 13.5
27 | CCNC(=O)C1CCN(c2nccc(C3CCCC3)n2)C1 (stereo unspecified) | -17.7
28 | Cc1ccc(NC2CCCN(CCCc3ccccc3)C2)nn1 (stereo unspecified) | 30.2
29 | CCSCCn1c(=O)n(Cc2ccc(F)cc2)c2ncc(C(=O)O)cc21 | -4.52
30 | CCc1ccc(CN2CCN(c3ccc(C(N)=O)cn3)CC2)nc1 | 2.82
31 | C[C@@H]1CN(C(=O)C2(Cn3cccn3)CC2)CC[C@@]1(O)C1CC1 | 26.3
32 | CN(C)C(=O)N1C[C@@H]2CC[C@H](C1)N(S(=O)(=O)c1cccnc1)C2 | -9.57
33 | CCc1ccc(C2CC(=O)Nc3n[nH]cc32)o1 (stereo unspecified) | 0.796
34 | CC(C)(O)CCc1cccc(C(=O)N2CCC3(CCOCC3)CC2)c1 | -2.42
35 | CC(C)n1ccnc1CNC(=O)c1cccc(CCC(C)(C)O)c1 | -10.5
36 | CN(Cc1nc(-c2cccnc2)no1)C(=O)c1cccn1C | 53.7
37 | CC(=O)N[C@@H]1CN(Cc2nc3ccccc3[nH]2)C[C@H]1c1ccc(C)o1 | -8.75
38 | CC(Cc1ccc2c(c1)OCO2)c1cn(CCN2CCCC2)nn1 (stereo unspecified) | -12
39 | Cc1nnc(CN(C)CC2(O)CCCN(CCC3CCCCC3)C2=O)o1 (stereo unspecified) | 2.51
40 | Cc1cc(C)nc(N2CCCC(c3nccn3CCCN(C)C)C2)c1 (stereo unspecified) | -13.7
41 | Cc1ccccc1CCC1CCCN(C(=O)Cc2cc(=O)[nH]c(N)n2)C1 (stereo unspecified) | 10.8
42 | CN(Cc1ccccc1Cl)C(C(=O)O)c1ccc(F)c(CO)c1 (stereo unspecified) | -7.98
43 | OC1CCN(c2ccnc(NCCN3CCc4ccccc4C3)n2)C1 (stereo unspecified) | -13.9
44 | O=C(c1coc(COc2cccc3cnccc23)n1)N1CCCCCC1 | -1.27
45 | O=C(Nc1ccc(I)cc1C(=O)NCCN1CCOCC1)c1ccco1 | 8.88
46 | O=C(O)C(c1cccc2c1OCC2)N1CCC(N2CCSCC2)CC1 (stereo unspecified) | 0.963

Row | SMILES | cytotoxicity at 70.5 h [%]
47 | Cc1ccsc1CCNC(=O)C1(Oc2cccnc2C)CCNCC1 | -10.2
48 | CC(C)=CCC1(C(=O)O)CCCN(CCC(=O)NC2CC2)C1 (stereo unspecified) | -25.9
49 | C=C(C)COc1ccccc1CN1CCCC(C(=O)NCCCO)C1 (stereo unspecified) | -8.32
50 | CN1CC2(CCN(C(=O)c3ccc(=O)n(C)c3)CC2)CC1=O | 18.9
51 | CC(C)[C@@H]1CN(Cc2ccccc2C#N)C[C@H]1C(=O)O | 21
52 | COCCNC(=O)c1cnc(C)nc1C | 34.7
53 | COc1ccc(C(=O)N2CCC(C3CCN(c4ncccn4)CC3)C2)o1 (stereo unspecified) | 2.75
54 | CC(=O)NCc1nc(Cc2cccc(Cl)c2)nn1C1CCN(C)CC1 | 6.7
55 | OCc1csc(N2CCCN(Cc3ccc(F)cc3)CC2)n1 | 2.55
56 | Cc1ccc(F)cc1-n1c(CN(C)S(C)(=O)=O)n[nH]c1=O | -8.73
57 | CCCc1cc(N2CCC(NCC3(O)CCCCC3)CC2)nc(C)n1 | -8.99
58 | Cc1nc[nH]c1-c1nnc(SCC(=O)O)n1-c1ccccc1C(F)(F)F | -6.65
59 | Cn1nc(CN2CCC(c3ccncc3)CC2)c2c(Cl)cccc21 | -0.977
60 | CC(C)c1cc(NC(CCO)c2ccccc2)n2nccc2n1 (stereo unspecified) | 3.68
61 | Cc1nc(CNC(=O)c2ccc3c(c2)nc(N2CCOCC2)n3C)cs1 | -5.03
62 | COc1cc(NC2CCN(C3CCS(=O)(=O)CC3)CC2)ncn1 | -20.6
63 | CN(CC1COc2ccccc2O1)C(=O)c1ccc(-c2cn[nH]c2)nc1 (stereo unspecified) | -2.63
64 | CC(CCc1ccc(O)cc1)NC1CCN(C(=O)C(C)C)CC1 (stereo unspecified) | -11.4
65 | Cc1nn(CC(=O)N2CCC3(CN(C)C(=O)O3)C2)c(=O)c2ccccc12 (stereo unspecified) | -15
66 | COc1ccc([C@@H]2CN(C(=O)CCCc3cn[nH]c3)C[C@H]2N(C)C)cc1 | 9.02
67 | CC(C)N1CCOC(CC(=O)N2CC(c3ccncc3)C2)C1 (stereo unspecified) | -2.68
68 | O[C@@]1(CNCC2(Cn3ccnc3)CC2)CCCN2CCCC[C@@H]21 | -13.1
69 | C=C(C)COc1ccccc1C(=O)NCCc1nncn1C | 25.1

Row | SMILES | cytotoxicity at 70.5 h [%]
70 | CCCc1nnc(N(C)CC2CCN(CC(C)C)C2)o1 (stereo unspecified) | -1.56
71 | O=C(O)c1ccnc(-c2ccnc(N3CCCCCC3)n2)c1 | 17.6
72 | CCCC1(CO)CCCN(c2ncnc3c2c(C)nn3C)C1 (stereo unspecified) | -3.54
73 | CC(O)C(=O)N1CCN(c2ccccc2Cl)C(=O)C1 (stereo unspecified) | 17
74 | Fc1ccc(C2(CNCC(F)F)CCOC2)cc1 (stereo unspecified) | -2.85
75 | NC(=O)c1ccc(C2CCCN2C(=O)CCc2nc3ccccc3s2)s1 (stereo unspecified) | -1.87
76 | O=C(c1cscn1)N1CCC(Cn2cc(-c3ccsc3)nn2)CC1 | -8.02
77 | Cc1[nH]c2c(F)cccc2c1CC(=O)N1CCCC(N)CC1 (stereo unspecified) | 14.1
78 | Cc1ccc(CNC(=O)c2ccc(S(=O)(=O)N3C[C@@H]4C[C@H]3CN4)cc2)o1 | -2.7
79 | O=C1CC2(CCN(CCCF)CC2)CN1Cc1cc(F)cc(F)c1 | 8.23
80 | c1csc(CCC2CCCCN2Cc2noc(C3CC3)n2)c1 (stereo unspecified) | -13
81 | CC(C)c1nnc2sc(CC3CCS(=O)(=O)C3)nn12 (stereo unspecified) | -7.56
82 | COc1ccc(F)c(F)c1CN1CCC2(CC1)[C@H](O)C[C@@H]2OCCN | -7.39
83 | CCCC1COCCN1Cc1ccc(S(=O)(=O)NC)cc1 (stereo unspecified) | 7.3
84 | CCN(CC)CCCN1CCN(c2nc(C)cnc2C)CC1 | -7.19
85 | CCc1ccc(CN(C)c2cc(COC)nc3ccnn23)cc1 | -2.38
86 | CC(C)c1cccc(N2CCCC3(CCC(=O)N(C4CC4)C3)C2)n1 (stereo unspecified) | -1.84
87 | O=C1CC2(CCN(Cc3ccc(Cl)s3)C2)C(=O)N1 (stereo unspecified) | -9.8
88 | COCc1ncc(CN(CCN(C)C)Cc2ccc(C)s2)cn1 | -4.43
89 | CCCn1ncnc1C(C)NC(=O)CC1CCN(C(C)C)CC1 (stereo unspecified) | -4.86
90 | Cc1ccc(N2CCC(N3C[C@@H](CN(C)C)[C@@H](CO)C3)CC2)cc1 | -6.07
91 | O=C(CC1CCc2ccccc21)N1CCC(O)(c2cccnc2)CC1 (stereo unspecified) | -9.82
92 | O=C1O[C@@H]2CN(CCc3ccccc3)C[C@@H]2N1CCCN1CCOCC1 | -3.23

Row | SMILES | cytotoxicity at 70.5 h [%]
93 | O=C(COCC(F)(F)C(F)F)N1CCC2(CCCN(CC3CC3)C2=O)C1 (stereo unspecified) | -8.88
94 | O=C(O)C(c1ccc2c(c1)OCO2)N1CCCC1 (stereo unspecified) | -0.492
95 | Cc1nc[nH]c1C(=O)N1CCCC2(CN(C)C(=O)O2)C1 (stereo unspecified) | -0.146
96 | COCCCC1(CO)CCCN(C(=O)c2cnc(C3CC3)nc2)C1 (stereo unspecified) | -4.81
97 | COc1ccc(F)c(-c2cc(O)nc(N)n2)c1 | -9.12
98 | CCCN(Cc1cccnc1)Cc1ccc(C2CCCCO2)o1 (stereo unspecified) | -2.3
99 | COCCN1CC(c2nc(CC3CCN(C)CC3)no2)CCC1=O (stereo unspecified) | -11.5
100 | Cc1[nH]c2ccc(CNC(=O)c3ccc(CN4CCCC4)o3)cc2c1C | -7.28
101 | O=C(O)[C@@H]1CN(C(=O)c2ccc(O)cc2)C[C@H]1c1cccc(F)c1 | 14.4
102 | CCn1ccc2ccc(CN3CCCC3c3nc(C(C)C)no3)cc21 (stereo unspecified) | -10.7
103 | CS(=O)(=O)CCN1CCC2(CCCN(C3CCOCC3)C2=O)C1 (stereo unspecified) | -5.34
104 | CC(C)CCN1CC2(CCCN(C(=O)c3cscn3)C2)CCC1=O (stereo unspecified) | -8.72
105 | Cc1noc(C)c1CCC(=O)N1CCN(CCn2cncn2)CC1 | -1.34
106 | COc1ccc([C@@H]2CN(C(=O)CCC(F)(F)F)C[C@H]2NC(C)=O)cc1 | -5.27
107 | COc1nccc(N2CCN(Cc3ccc(C)cc3)C(=O)C2)c1C#N | 1.75
108 | COCCN1CCC(CN(CC2CCCO2)C(=O)COC)CC1 (stereo unspecified) | 13.8
109 | O=S1(=O)COCCN1Cc1ccc(Cl)c(F)c1 | -6.23
110 | O=C(c1c[nH]c(=O)c(Cl)c1)N1C[C@@H]2CC[C@H](C1)N(Cc1ccccc1)C2 | -1.59
111 | Cc1cc(C[C@@H]2COC[C@@H]2NC(=O)Cn2c(=O)oc3ccccc32)on1 | 1.37

From ChEMBL document CHEMBL3507680, “University of Dundee, Gates Library screen for HepG2 cell viability”
